Results: PMC6956045 (Pharmaceutics, 2019)
Converted amounts (≈) assume the structure as drawn.

What was measured:
[1] = Bulk phase partition coefficient n-octanol/phosphate buffer; format: physicochemical; settings: pH 6.8, read-out: n-Octanol partition coefficient P (converted)
Description: The partition coefficient was calculated as the ratio between octanol concentration and the aqueous concentration. Three replicates were done to determine the average value.
Partition coefficients can be used as an index to provisionally classify compounds in terms of permeability.

[2] = cited from earlier work
[3] = cited from earlier work; remark: listed apart in the source
[4] = test system: Caco-2 cell monolayers; assay: Permeability assay: Caco-2 transport studies; format: in vitro ADME
Description: Caco-2 cells were grown in a polycarbonate membrane. To reach the confluence, 250,000 cells/cm^2 were seeded in six Transwell plates and […] for 19–22 days with Dubelcco’s Modified Eagle’s Media, with 1% L-glutamine, 10% fetal bovine serum, and 1% penicillin/streptomycin, at 37 °C temperature, 90% relative humidity, and 5% CO2.
The confluence of the cells was tested by measuring the transepithelial electrical resistance (TEER). Permeability studies were conducted with an orbital shaking (50 rpm) and with pH 7.0 in both chambers. Standard protocols were described and validated previously in our laboratory. Four samples of 200 µL were taken and replaced with a fresh buffer from the receiver side at 15, 30, 45, and 90 min.
Permeability studies were performed in both directions: apical-to-basal (A-to-B) and basal-to-apical (B-to-A).
The apparent permeability coefficient was calculated according the following equation:(1) Creceiver,t=Qtotal/Vreceiver+Vdonor+((Creceiver,t−1·f)−Qtotal/Vreceiver+Vdonor)·e^−Peff 0,1·S·(1/Vreceiver+1/Vdonor)·Δt where Creceiver,t is the drug concentration in the receiver chamber at time t, Qtotal is the total amount of drug in both chambers, Vreceiver and Vdonor are the volumes of each chamber, Creceiver,t−1 is the drug concentration in the receiver chamber at the previous time, f is the sample replacement dilution factor, S is the surface area of the monolayer, Δt is the time interval, and Peff is the permeability coefficient as was described by Mangas-Sanjuan et al..
Experiments in the presence of the formulation excipients were done by dissolving a formulation tablet in 250 mL of buffer and filtrating the obtained dispersion to eliminate nonsoluble excipients.

[5] = Solubility assay: saturation shake-flask method; format: physicochemical; settings: for solubility at 8 h: thermodynamic from solid, 37 °C, shake-flask
Description: The solubility assays were performed according to the World Health Organization (WHO) guidelines protocols. […] A sample concentration was determined using high-performance liquid chromatography (HPLC) with ultraviolet (UV) detection.

SMILES | logD [1] | Solubility in chloroform [2] | Solubility in water, methanol and acetonitrile [2] | log P [2] | pKa [2] | First-pass hepatic effect (of the absorbed drug) [3] [%] | Intestinal absorption (of dose administered) [3] [%] | Concentration dependence of permeability ([4]; Caco-2, 50-1000 μM) | Permeability compared with metoprolol ([4]; Caco-2, pH 7.0 both chambers, drug in solution) | Permeability in the presence of sodium azide ([4]; Caco-2, passive diffusion permeability, transporter contribution nullified) | Solubility classification [5] | solubility at 8 h ([5]; buffer solution pH 1.2, aqueous buffer, pH 1.2 buffer) [mg/mL] | solubility at 8 h ([5]; buffer solution pH 4.5, aqueous buffer, pH 4.5 buffer) [mg/mL] | solubility at 8 h ([5]; buffer solution pH 6.8, aqueous buffer, pH 6.8 buffer) [mg/mL] | Volume in which the highest strength/dose (40 mg) would be soluble ([5]; pH 1.2) [mL]
COCCc1ccc(OCC(O)CNC(C)C)cc1 (stereo not shown) [Metoprolol] | -0.638 |  |  |  |  |  |  |  |  |  |  |  |  |  | 
CC[C@H](C)C(=O)O[C@H]1C[C@H](O)C=C2C=C[C@H](C)[C@H](CC[C@@H](O)C[C@@H](O)CC(=O)O)[C@H]21 [Pravastatin sodium] |  | practically insoluble | easily soluble |  |  |  |  |  |  |  |  |  |  |  | 
CC[C@H](C)C(=O)O[C@H]1C[C@H](O)C=C2C=C[C@H](C)[C@H](CC[C@@H](O)C[C@@H](O)CC(=O)O)[C@H]21 [Pravastatin] | -0.155 |  |  | 1.65 | 4.21 | 66 | 34 | permeability increased at higher concentrations | lower than that of metoprolol | as high as metoprolol permeability | highly soluble | 440 ± 17.4 (≈ 1040 mM) | 504 ± 24.2 (≈ 1190 mM) | 480 ± 17.4 (≈ 1130 mM) | 0.09
